Measured values from ChEMBL document CHEMBL4715804, “A Fluorescence Polarization Biophysical Assay for the Naegleria DNA Hydroxylase Tet1” (ACS Med Chem Lett, 2016).
Active and inactive are the calls of the source. The calls are words filed in the database; no cut-off is given here.

Legend:
[1] = (§1) Displacement of sodium 5-(3-(8-(3-carboxy-N-hydroxyacrylamido)octyl)thioureido)-2-(6-hydroxy-3-oxo-3H-xanthen-9-yl)benzoate from Naegleria Tet-1 incubated for 20 mins followed by sodium 5-(3-(8-(3-carboxy-N-hydroxyacrylamido)octyl)thioureido)-2-(6-hydroxy-3-oxo-3H-xanthen-9-yl)benzoate addition and further incubated 4 hrs and measured upto 20 hrs by competition fluorescence polarization assay
Naegleria = assay: as §1, with “Tet-1 at 5 mM” for “Tet-1”; conditions: time hrs <=20
[2] = Binding affinity to Naegleria Tet1 assessed as dissociation constant incubated for 4 hrs and measured upto 20 hrs by fluorescence polarization assay

## O=C(O)CNC(=O)C(=O)O [N-OXALYLGLYCINE]
[1]
  IC50: 49 µM
  Ki: 16 µM

## O=C(O)CCC(=O)C(=O)O [ALPHA-KETOGLUTARIC ACID]
[1]
  IC50: 250 µM
  Ki: 83 µM

## Nc1nc(=O)n([C@H]2C[C@H](O)[C@@H](CO)O2)cc1CO
Naegleria
  inhibition: inactive

## O=C(O)c1ccnc(C(=O)O)c1
[1]
  IC50: 27 µM
  Ki: 9 µM

## O=C(O)CC[C@@H](O)C(=O)O
[1]
  IC50: 5200 µM
  Ki: 1700 µM

## Cc1cn([C@H]2C[C@H](O)[C@@H](CO)O2)c(=O)nc1N
Naegleria
  inhibition: inactive

## O=C(O)/C=C/C(=O)N(O)CCCCCCCCNC(=S)Nc1ccc(-c2c3ccc(=O)cc-3oc3cc(O)ccc23)c(C(=O)O)c1
[2]
  Kd: 0.25 µM
